Measured values reported in patent publication US4137236A, “Amino-spiro[oxa(or thia)cycloalkane-penam]-carboxylic” (U C B, Societe Anonyme, priority 1977, dated 1979).

Legend:
Type in all cases: cell-based
Escherichia coli B = test: MIC in gelose culture medium (relative to reference penicillin); settings: E.COLI B; reference 6-amino-penicillanic acid = 1
Method: This is a well-known collection strain of Escherichia coli which produces very little beta-lactamase (of type I) and is, therefore, very sensitive to penicillins. As regards the classification of the beta-lactamases, use is here made of that proposed by M. H. RICHMOND and R. B. SYKES (see Advances in Microbial Physiology,9,(1973),pp.43 and 45).
(§1) For a certain number of compounds of formula (XV), the minimum inhibitory concentration (MIC) was determined as follows:
(§2) The products to be tested are introduced in increasing concentrations into a gelose culture medium in Petri dishes. A multiple inoculator is used to deposit simultaneously drops (10 microliters) of inoculum (suspension of approximately 10^5 bacteria per ml) onto the surface of the medium. After incubation at 37° C for 24 hours, the growth of the bacteria is observed. By definition, the MIC is expressed by the minimum concentration of tested compound which inhibits the multiplication of the bacteia. In the following results, however, the MIC is given as being equal to 1 for the reference compounds and the activity figures given for the tested compounds of formula (XV) are, therefore, relative values. This presentation of the results is more correct and the most reproducible because, for one and the same bacterial strain, different MIC values can be observed if they are measured at different times. This is bound up with the "seasonal" variations in the strains and their nutrient medium.

[1] = system: Staphylococcus aureus 6538; test: as above; settings: S.AUREUS 6538; reference 6-amino-penicillanic acid = 1
Method: This is a Gram-positive coccus which is particularly sensitive to penicillins and which has a low resistance mechanism. This strain of Staphylococcus is, therefore, representative of a maximum sensitivity of the species.
as §1, §2

[2] = system: Staphylococcus aureus 52149; test: as above; settings: S.AUREUS 52149; reference 6-amino-penicillanic acid = 1
Method: This is a Gram-positive coccus, the intrinsic sensitivity of the receptor of which is equivalent to that of the preceding strain but which produces a beta-lactamase which is typical of the species and which renders it resistant to all the penicillins which are sensitive to hydrolysis.
as §1, §2

[3] = system: Gram-positive and Gram-negative bacteria; test: Comparative antibacterial activity spectra; settings: towards both Gram-positive and Gram-negative bacteria
Method: as §2

[4] = system: Escherichia coli B-Ampi R; test: MIC in gelose culture medium (relative to reference penicillin); settings: E.COLI B AMPI-R; reference 6-amino-penicillanic acid = 1
Method: This is a mutant of the preceding strain which we have produced.
as §1, §2

`N[C@@H]1C(=O)N2[C@@H]1SC1(CCOCC1)[C@@H]2C(=O)O` (relative stereo) [Compound D, 6-amino-2',3',5',6'-tetrahydro-spiro[penam-2,4'-[4H]-pyran]-3-carboxylic acid] was tested, and the “MIC relative to reference compound (=1)” value (Escherichia coli B) was 0.3, the “MIC relative to reference compound (=1)” value [1] was 0.5 and the “MIC relative to reference compound (=1)” value [2] was 0.5. The “Activity as compared with 6-amino-penicillanic acid (in words)” value [3] was “better activity” and the “MIC relative to reference compound (=1)” value [4] was 0.3.
